Tests used:
[1] = tested on: voltage gated potassium channels (transient outward current, TOC) in dorsal root ganglion (DRG) cells; experiment: Procedure 1: modulation of voltage-activated K^+ currents in dorsal root ganglion (DRG) cells, block of TOC; assay type: cell-based
From the text: They may therefore by used to treat CNS disorders as described above such as depression, pain psychoses, anxiety, movement disorders (such as Parkinson's disease) and multiple sclerosis and in enhancing cognition, memory and learning.
Procedure 1 Modulation of voltage-activated K^+ currents in dorsal root ganglion (DRG) cells:
The method used in the culture or dorsal root ganglion cells is similar to that described by Wood et. al., Capsaicin induced ion fluxes in dorsal root ganglion cells in culture, J. Neuroscience, 8, 3208-3220) (1988). Dorsal root ganglia are dissected mainly from around the lumbar and thoracic vertebrae and placed in a conical centrifuge tube containing Ham's F14 nutrient mixture (F14:Imperial Laboratories) plus horse serum (HS: GIBCO or Flow). When all ganglia have been collected (ex ca. 14 pups) the excess medium is removed and the ganglia incubated for 30 min in "F14+HS" containing 0.1% collagenase Type 1A-S (Sigma). Excess medium is removed, ganglia washed in 4 ml F14 (no HS), resuspended and spun down at 900 g for 10 s. The supernatant is again removed and replaced with 1.8 ml F14 (no HS) plus 0.2 ml trypsin (GIBCO) at a final concentration of 0.25%. The ganglia are then incubated at 37° C. for 30 min agitating every 10 min to prevent clumping. The trypsinisation is inhibited by the addition of 6 ml "F14+HS" and cells are resuspended and centrifuged as before. The medium is removed and 2 ml added of "F14+HS" containing 0.4% DNAase 1 (Sigma). The ganglia are then triturated gently 15-20× using a siliconised pasteur pipette, filtered through a […] nylon mesh filter and collected into a centrifuge tube. The filter is further washed with 2 ml of "F14+HS" which is collected into the same tube. The suspension is spun at 900 g for 3 min, the supernatant removed and the cells resuspended in DRG Growth Medium (DRG-GM) which consists of: HAMS F14 nutrient mixture (40%, v/v), HS(10%, v/v) C6 conditioned medium (50%, v/v), penicillin/streptomycin (100 U/ml; 100 μg/ml) and NGF (30 μg/ml). Cells are then plated out onto five 60 mm poly-L-lysine-coated tissue culture petri dishes (see below).
After a few days in culture (3-7 days, usually), cells are resuspended from 60 mm dishes using a 0.25% solution of trypsin in F14. An equal volume of DRG-GM is added to inhibit the trypsin, the cells are spun at 900 g for 5 minutes and resuspended in 0.25-0.5 ml of DRG-GM. Neurites are removed by gentle trituration through a 21 g syringe needle (15-20 strokes) and a drop of the cell suspension is then placed on each of 5-6 poly-D-lysine- and laminin-coated 35 mm petri dishes (see below). After 30 minutes incubation at 37° C., each plate is flooded with ca 1.5 ml DRG-GM and after about 1 hour incubation, cells are ready for electrophysiological recording. This final step is carried out specifically in order to remove neurites which hinder good voltage-clamp of the cells.
2 ml of poly-D-lysine (Sigma), reconstituted in distilled water to 100 μg/ml, are added to each plate and left for 1-2 hours. Plates are then washed with water and left to dry. Laminin (5 μg/ml) is added as a drop to the centre of plates (previously coated with poly-D-Lys), left for 45 min before removal of excess and use of plates.
Recordings are made using an AxoClamp-2A (Axon Instruments Inc) switiching clamp amplifier using patch electrodes (4-8 Mohms), made from borosilicate glass capillary tubes (GC150TF-10, Clark Electromedical) and fire-polished. Electrodes are filled with (in mM): 140 K Gluconate, 2 MgCl2, 1.1 EGTA/KOH, 5 HEPES, 20 sucrose, 2 MgATP, 0.2 GTP; pH set to 7.2 with KOH and osmolarity adjusted with sucrose to 310 mOsm. The electrodes are then and dipped in Sigmacote (Sigma) prior to recording to reduce stray capacitance. […]

[2] = tested on: transient outward potassium current (TOC) in GH3 rat pituitary cell line; experiment: Procedure 2: blocking transient outward potassium currents (TOC) in the GH3 rat pituitary cell line; assay type: cell-based; details: GH3 cells; for % Block of TOC, PROCEDURE 2 GH3 %: 100 μM
Description: The compounds were also tested for blocking transient outward potassium currents (TOC) in the GH3 rat pituitary cell line according to the procedure below:
GH3 cells were obtained from either Flow Laboratories or European Centre for Animal Cell Cultures (Porton Down), and maintained in tissue culture using standard procedures and media for this cell line. Cells were plated on 35 mm plastic dishes and used subsequently for electophysiology with 1 to 10 days.
Currents were recorded using the whole-cell voltage clamp configuration of the patch clamp technique, using an Axopatch 1C amplifier (Axon Instruments). Patch electrodes were manufactured from aluminosilicate glass tubing (Clark Electomedical SM150F-10) and heat polished prior to use. Resistance was 1-5 M.OMEGA.. No electrode coating was necessary for whole-cell recording. Signal acquisition and analysis was performed using pClamp software (Axon Instruments). A p-on-4 subtraction procedure was used to remove leak and capacitative currents on line. A holding potential of -100 mV was routinely used: this avoided accumulation of slow voltage-dependent inactivation.
Two main protocols were used in testing drugs. 1) Current-voltage (I-V) curves were collected, with incrementing steps of either 10 or 20 mV. Full I-V curves were obtained both in control and drug solutions. 2) a `pharmacology` program, which involved single voltage steps fromm -100 to +60 mV, applied and collected at 20 s intervals. Compounds under investigation were applied via a `U` tube rapid application system to a small area of the recording chamber. Drug applications were always bracketed by control solutions to ensure reversibility. The recording chamber was continously perfused at 1-5 ml.min^-1. Results are expressed at % of control peak current (step form -100 to +60 mV). However, where drugs have a time dependent effect on TOC, i.e acceleration of TOC decay, results are also expressed as a % of total charge transferred within a defined period of the voltage step from -100 to +60 mV.
The standard extracellular solution contained (in mM): NaCl 135 (or choline or TRIS chloride); KCl 5; MgCl2 4; EGTA 1; TEACl 10; HEPES 10; glucose 25; pH set to 7.4 with NaOH. TTX was usually at 100-200 nM.
The intracellular (pipette) solution was comprised of (in mM): K aspartate 120; KCl 20; MgCl2 1; cAMP 1; MgATP 2; EGTA 10; HEPES 10; pH 7.4 with KOH. Other intracellular substrates were often used without noticeable effect. This solution was stored in 1 ml aliquots at -4° C., and filtered at 0.2 μm.
These recording solutions precluded activation of voltage dependent Na, Ca, delayed rectifier and Ca-activated K currents. The resulting whole-cell currents chiefly comprised the transient outward potassium current, switching on with third power kinetics reaching peak amplitudes of ~1 nA at +60 mV, and a double exponential decay (time constants of ~30 and 160 ms at +60 mV). There is no significant change in current amplitude within the normal recording period, which may extend for up to 90 min. One dish of cells usually lasts several hours.
The standard compound 4-aminopyridine is a block @ 1-5 mM. (80% block at 5 mM).

SMILES	% Block of TOC, PROCEDURE 2 GH3 % [2] [%]	% Block of TOC, PROCEDURE 1 DRG % ([1]; 10 μM) [%]	also measured
COc1ccc(C[C@H]2CC[C@H]3NC[C@H](CO)C[C@H]3C2)cc1 (racemic) [Example 4, (±)-(3RS,4aRS,6SR,8aRS)-1,2,3,4,4a,5,6,7,8,8a-Decahydro-3-hydroxymethyl-6-((4-methoxyphenyl)methyl)quinoline]	56		% Block of TOC, PROCEDURE 1 DRG % ([1]; 100 μM): 60%
COc1ccc(C[C@H]2CC[C@H]3NCCC[C@H]3C2)cc1 [Example 9, (-)-(4aS,6S,8aR)-3,4,4a,5,6,7,8,8a-Decahydro-6-((4-methoxyphenyl)methyl)quinoline]		28	
COc1ccc(C[C@@H]2CC[C@H]3NC[C@H](CO)C[C@@H]3C2)cc1 (racemic) [Example 2, (±)-(3RS,4aSR,6RS,8aRS)-1,2,3,4,4a,5,6,7,8,8a-Decahydro-3-hydroxymethyl-6-((4-methoxyphenyl)methyl)quinoline]	31		
Nc1ccncc1 [4-aminopyridine, reference compound]			block of TOC (standard compound) ([1]; at 1 mM): 100%; block (standard compound), in words ([2]; @ 1-5 mM): block; block (standard compound) ([2]; at 5 mM): 80%
COc1ccc(C[C@@H]2CC[C@H]3NC[C@H](CO)C[C@@H]3C2)cc1 [Example 6, (+)-(3R,4aS,6R,8aR)-1,2,3,4,4a,5,6,7,8,8a-Decahydro-3-hydroxymethyl-6-((4-methoxyphenyl)methyl)quinoline]		29	
COc1ccc(CC2CCC3NCC(CO)CC3C2)cc1 (stereo not drawn) [Example 1, 1,2,3,4,4a,5,6,7,8,8a-Decahydro-3-hydroxymethyl-6-((4-methoxyphenyl)methyl)quinoline]	55		
COc1ccc(C[C@H]2CC[C@@H]3NC[C@H](CO)C[C@H]3C2)cc1 (relative stereo) [Example 3, (±)-(3RS,4aRS,6SR,8aSR)-1,2,3,4,4,a,5,6,7,8,8a-Decahydro-3-hydroxymethyl-6-((4-methoxyphenyl)methyl)quinoline]	68	32	
COc1ccc(C[C@H]2CC[C@@H]3[C@@H](CCCN3[C@H](C)c3ccccc3)C2)cc1 [Example 8, (+)-(1'R,4aS,6S,8aR)-1,2,3,4,4a,5,6,7,8,8a-Decahydro-6-((4-methoxyphenyl)methyl)-1-(1'-phenylethyl)quinoline]		49	
